Experimental data reported in patent US20160101148A1, “TREATMENT AND PREVENTION OF BACTERIAL SKIN INFECTIONS USING ORITAVANCIN” (priority 2013, published 2016).
≈ marks a conversion by molar mass, not a printed value.

Assays:
[1] = system: ABSSSI suspected or proven to be due to a gram-positive pathogen, including MRSA; assay: SOLO I Phase 3 trial, efficacy: single dose IV oritavancin versus IV vancomycin for 7 to 10 days; assay type: in vivo, human; conditions: for Lesion Size Reduction ≧20% From Baseline / Primary efficacy endpoint response rate (cessation of spread, absence of fever, no rescue antibiotics): ECE 48 to 72 hours; for Investigator-Assessed Clinical Cure / Sustained Clinical Cure: PTE 7 to 14 days after EOT
Procedure: The primary efficacy endpoint comprised: 1) cessation of spreading or reduction in the size of the baseline lesion, 2) absence of fever, and 3) no rescue antibiotic, at 48 to 72 hours, for the modified intent to treat population.
The study design was consistent with current guidelines from FDA (U.S. Food and Drug Administration. Guidance for Industry Acute Bacterial Skin and Skin Structure Infections: Developing Drugs for Treatment (DRAFT GUIDANCE). Available via Internet at the URL containing: fda.gov/downloads/Drugs/GuidanceComplianceRegulatoryInformation/Guidances/ucm071185.p df) and EMA (European Medicines Agency Committee for Medicinal Products for Human Use. Addendum to the note for guidance on evaluation of medicinal products indicated for treatment of bacterial infections (CHMP/EWP/558/95 REV 2) to address indication-specific clinical data (draft). 2012. Available via Internet at the URL containing: ema.europa.eu/docs/en_GB/document_library/Scientific_guideline/2012/07/WC500129443.pdf) and Foundation for National Institutes of Health guidance was considered for analyses (Talbot G H etl. Clin Infect Dis. 2012. 55(8):1114-1121). The protocol was approved by institutional review boards/ethics committees and all patients provided written informed consent. The study was conducted from January 2011 through October 2012 at 46 study centers in Mexico, Spain, Germany, Romania, Russia, Ukraine, Israel, India, and the United States. […] Aztreonam and metronidazole were permitted for gram-negative and anaerobic cover, respectively.
Clinical evaluations were performed at the following time points: Early Clinical Evaluation (ECE) at 48 to 72 hours after the initiation of the study drug infusion, End of Therapy (EOT) at Day 7 to Day 10 or the day the patient stopped study drug or changed to non-study drug therapy for primary ABSSSI, Day 10 Evaluation defined as 10 days after the initiation of the study drug infusion, Post Therapy Evaluation (PTE) at 7 to 14 days after the EOT visit, and Safety Follow-up at 60 days (+7 days) after the initiation of the study drug infusion. Safety data was reviewed by a data monitoring committee.
Eligible patients were to be at least 18 years of age with diagnosis of ABSSSI that was suspected or proven to be due to a gram-positive pathogen and which required at least 7 days of IV therapy. The diagnosis of ABSSSI was defined as wound infections (either traumatic or surgical in origin), cellulitis/erysipelas or major cutaneous abscess with surrounding erythema, edema, and/or induration of at least 75 cm^2. The onset of wound infections or cellulitis/erysipelas must have occurred within 7 days prior to randomization. Patients also had to present with signs and symptoms of systemic inflammation. Patients were not eligible to participate if they received systemic or topical antibacterial therapy with gram-positive activity within the preceding 14 days.
The primary efficacy endpoint was a composite outcome of 1) cessation of spreading or reduction in the size of the baseline lesion, 2) absence of fever, and 3) no rescue antibiotic medication at the ECE visit, for the mITT population.
The secondary efficacy outcomes were as follows: 1) Lesion area decrease by ≧20% from Baseline at ECE, 2) Investigator-Assessed Clinical Response at PTE, 3) Sustained Clinical Response at PTE.
The analyses were performed for patients who had lesion area assessments at baseline and ECE using the mITT and CE populations.
If a patient had clinical failure assessed beyond the PTE visit window, the patient was considered as a clinical failure. If a patient had clinical success assessed beyond the PTE visit window, a) and if the patient had clinical failure before the PTE visit, the patient was considered a clinical failure at PTE or b) if the patient had clinical success also before the PTE visit, the patient was considered a clinical success at PTE.

[2] = system: S. aureus strains (14 mecC MRSA, 2 mecA MRSA, ATCC 29213 MSSA); assay: Broth microdilution MIC determination; assay type: cell-based, Staphylococcus aureus; conditions: Staphylococcus aureus
Procedure: The S. aureus (SA) strains used in this study were: ATCC 43300 (mecA methicillin-resistant SA [MRSA]); ATCC 33591 (mecA MRSA), ATCC 29213 (methicillin-susceptible SA; quality control strain) and 14 mecC MRSA obtained from the Staten Serum Institute (Copenhagen, Denmark).
Tests with oritavancin included polysorbate-80 (final test concentration of 0.002%) as described (CLSI 2012a; Arhin et al., 2008). Tests with daptomycin included CaCl2 at a concentration of 50 mg/L. MICs were read after 24 h incubation.

Structure (SMILES): CN[C@H](CC(C)C)C(=O)N[C@H]1C(=O)N[C@@H](CC(N)=O)C(=O)N[C@H]2C(=O)N[C@H]3C(=O)N[C@H](C(=O)N[C@H](C(=O)O)c4cc(O)cc(O)c4-c4cc3ccc4O)[C@H](O)c3ccc(c(Cl)c3)Oc3cc2cc(c3O[C@@H]2O[C@H](CO)[C@@H](O)[C@H](O)[C@H]2O[C@H]2C[C@](C)(N)[C@H](O)[C@H](C)O2)Oc2ccc(cc2Cl)[C@H]1O [Vancomycin, vancomycin]
- Lesion Size Reduction ≧20% From Baseline ([1]; CE): 88.7%
- Primary efficacy endpoint response rate (cessation of spread, absence of fever, no rescue antibiotics) ([1]; CE): 86.1%
- Investigator-Assessed Clinical Cure ([1]; CE): 93.2%
- Lesion Size Reduction ≧20% From Baseline ([1]; MRSA MicroE): 89.0%
- Primary efficacy endpoint response rate (cessation of spread, absence of fever, no rescue antibiotics) ([1]; MRSA MicroE): 86.6%
- Investigator-Assessed Clinical Cure ([1]; MRSA MicroE): 97.6%
- Lesion Size Reduction ≧20% From Baseline ([1]; MRSA MicroITT): 84.0%
- Primary efficacy endpoint response rate (cessation of spread, absence of fever, no rescue antibiotics) ([1]; MRSA MicroITT): 80.0%
- Lesion Size Reduction ≧20% From Baseline ([1]; MRSA MicroITT, listed as vancomycin): 84.0%
- Investigator-Assessed Clinical Cure ([1]; MRSA MicroITT): 83.0%
- Sustained Clinical Cure ([1]; MRSA MicroITT): 69.0%
- Lesion Size Reduction ≧20% From Baseline ([1]; mITT): 82.9%
- Primary efficacy endpoint response rate (cessation of spread, absence of fever, no rescue antibiotics) ([1]; mITT): 78.9%
- Lesion Size Reduction ≧20% From Baseline ([1]; mITT, listed as vancomycin): 82.9%
- Primary efficacy endpoint response rate (cessation of spread, absence of fever, no rescue antibiotics) ([1]; mITT, listed as vancomycin): 78.9%
- Investigator-Assessed Clinical Cure ([1]; mITT): 80.0%
- Sustained Clinical Cure ([1]; mITT): 69.7%
- Investigator-Assessed Clinical Cure ([1]; mITT, listed as vancomycin): 80.0%
- Sustained Clinical Cure ([1]; mITT, listed as vancomycin): 69.7%
- MIC90 [2]: 1 µg/mL (≈ 0.69 µM)
- MIC ([2]; 57147 MRSA (mecC)): 1 µg/mL (≈ 0.69 µM)
- MIC ([2]; 70611 MRSA (mecC)): 1 µg/mL (≈ 0.69 µM)
- MIC ([2]; 73348 MRSA (mecC)): 1 µg/mL (≈ 0.69 µM)
- MIC ([2]; 73415 MRSA (mecC)): 1 µg/mL (≈ 0.69 µM)
- MIC ([2]; 73617 MRSA (mecC)): 1 µg/mL (≈ 0.69 µM)
- MIC ([2]; 73829 MRSA (mecC)): 1 µg/mL (≈ 0.69 µM)
- MIC ([2]; 75814 MRSA (mecC)): 1 µg/mL (≈ 0.69 µM)
- MIC ([2]; 76918 MRSA (mecC)): 1 µg/mL (≈ 0.69 µM)
- MIC ([2]; 77431 MRSA (mecC)): 1 µg/mL (≈ 0.69 µM)
- MIC ([2]; 77601 MRSA (mecC)): 1 µg/mL (≈ 0.69 µM)
- MIC ([2]; 77950 MRSA (mecC)): 1 µg/mL (≈ 0.69 µM)
- MIC ([2]; 77964 MRSA (mecC)): 1 µg/mL (≈ 0.69 µM)
- MIC ([2]; 78085 MRSA (mecC)): 1 µg/mL (≈ 0.69 µM)
- MIC ([2]; 78651 MRSA (mecC)): 1 µg/mL (≈ 0.69 µM)
- MIC ([2]; ATCC 29213 (MSSA)): 1 µg/mL (≈ 0.69 µM)
- MIC ([2]; ATCC 29213 / ATCC 33591 / MRSA / MSSA, ATCC 33591 MRSA (mecA)): 1 µg/mL (≈ 0.69 µM)
- MIC ([2]; ATCC 29213 / ATCC 43300 / MRSA / MSSA, ATCC 43300 MRSA (mecA)): 1 µg/mL (≈ 0.69 µM)
- MIC ([2]; all strains tested): 1 µg/mL (≈ 0.69 µM)
